Assay in all cases: Minimum inhibitory concentration (MIC), standard method of the Japanese Chemotherapeutic Association
Test [1] has as its system Salmonella paratyphi IID 605. The conditions noted are these: Salmonella enterica, IID605|PARATYPHI, read-out: Minimum Inhibitory Concentration (MIC).
For test [2], the system named is Shigella dysenteriae IID 633. The conditions noted are these: IID633, read-out: Minimum Inhibitory Concentration (MIC).
Test [3] deals with Salmonella typhimurium IID 1000. In kind it is cell-based. The conditions noted are these: Salmonella enterica, read-out: Minimum Inhibitory Concentration (MIC).
Another test deals with Shigella sonnei IID 969. It is filed as cell-based. As to conditions: IID969, Inoculum size: 10^6 cells/ml.
For test [4], the system named is Bacillus subtilis ATCC 6633. It is filed as cell-based.
The test system of test [5] is Enterobacter cloacae IID 977. In kind it is cell-based.
In another test the test system is Escherichia coli MEGAWA. In kind it is cell-based. The conditions noted are these: for MIC: Escherichia coli.
Test [6] relates to Enterobacter aerogenes IID 5206. In kind it is cell-based. The conditions noted are these: Klebsiella aerogenes.
A further test concerns Proteus morganii IID 602. In kind it is cell-based. As to conditions: Morganella morganii.
The subject of test [7] is Pseudomonas aeruginosa IFO 13739. It is filed as cell-based.
Test [8] deals with Pseudomonas pudita IID 5121. In kind it is cell-based.
The subject of test [9] is Staphylococcus aureus 209-P. In kind it is cell-based. As to conditions: read-out: Minimum Inhibitory Concentration (MIC).
The subject of a further test is Escherichia coli N I H J. It is filed as cell-based. As to conditions: read-out: Minimum Inhibitory Concentration (MIC).
Test [10] has as its system Serratia marcenscens IFO 12648. It is filed as cell-based.
A further test concerns Proteus vulgaris. It is filed as cell-based. The conditions noted are these: read-out: Minimum Inhibitory Concentration (MIC).
For test [11], the system named is Staphylococcus aureus TERAJIMA
It is filed as cell-based. The conditions noted are these: read-out: Minimum Inhibitory Concentration (MIC).

In test [12] the test system is Staphylococcus epidermidis ATCC12228. It is filed as cell-based.
The test system of the next test is Shigella boydii IID 627. In kind it is cell-based. As to conditions: IID627, Inoculum size: 10^6 cells/ml.
Test [13] relates to Pseudomonas aeruginosa IFO 3080. It is filed as cell-based.
The subject of test [14] is Salmonella enteritidis IID 604. In kind it is cell-based. As to conditions: Salmonella enterica, read-out: Minimum Inhibitory Concentration (MIC).
Test [15] relates to Klebsiella pneumoniae IID 865. In kind it is cell-based.
The mark [16] stands for this setting: Inoculum size: 10^6 cells/ml, weight concentration.
Setting [17] is: ATCC6633, Inoculum size: 10^6 cells/ml, weight concentration, read-out: Minimum Inhibitory Concentration (MIC).
Where [18] appears, read: IID977, Inoculum size: 10^6 cells/ml, weight concentration, read-out: Minimum Inhibitory Concentration (MIC).
Where [19] appears, read: Inoculum size: 10^6 cells/ml, weight concentration, read-out: Minimum Inhibitory Concentration (MIC).
Setting [20] is: IID5206, Inoculum size: 10^6 cells/ml, weight concentration, read-out: Minimum Inhibitory Concentration (MIC).
Where [21] appears, read: IID602, read-out: Minimum Inhibitory Concentration (MIC).
Setting [22] is: IFO13739, Inoculum size: 10^6 cells/ml, weight concentration, read-out: Minimum Inhibitory Concentration (MIC).
The mark [23] stands for this setting: IID5121, Inoculum size: 10^6 cells/ml, weight concentration, read-out: Minimum Inhibitory Concentration (MIC).
Setting [24] is: IFO12648, read-out: Minimum Inhibitory Concentration (MIC).
Where [25] appears, read: ATCC12228, Inoculum size: 10^6 cells/ml, weight concentration, read-out: Minimum Inhibitory Concentration (MIC).
[26] abbreviates: IID865, Inoculum size: 10^6 cells/ml, weight concentration, read-out: Minimum Inhibitory Concentration (MIC).
The mark [27] stands for this setting: ATCC6633, read-out: Minimum Inhibitory Concentration (MIC).
The mark [28] stands for this setting: IID977, read-out: Minimum Inhibitory Concentration (MIC).
The mark [29] stands for this setting: Inoculum size: 10^6 cells/ml, potency concentration.
Where [30] appears, read: IID5206, read-out: Minimum Inhibitory Concentration (MIC).
Setting [31] is: IFO13739, read-out: Minimum Inhibitory Concentration (MIC).
Where [32] appears, read: IFO3080, read-out: Minimum Inhibitory Concentration (MIC).

The results in this text go back to patent US4436904A, “Cephalosporins” (Kanto Ishi Pharmaceutical Co., Ltd., priority 1981, dated 1984).

Converted amounts (≈) assume the structure as drawn. Where two headings read alike, the source gives them in different places. Where only a bound is given, the exact number is not on record here.

In the case of `CC(=O)OCC1=C(C(=O)O)N2C(=O)C(NC(=O)[C@H](NC(=O)N3CCN(N=C4SCCS4)C3=O)c3ccccc3)C2SC1` (single isomer, unassigned) [KI-6203, sodium 7-{D-(-)-α-[(2-oxo-3-(1,3-dithiolan-2-imino)-imidazolidin-1-yl)-carboxamido]-phenylacetamido}-3-acetoxymethyl-3-cephem-4-carboxylate], the MIC amounted to 6.25 µg/mL in [1]; 0.78 µg/mL in test [2]; 3.13 µg/mL in test [3] (setting [16]); 1.56 µg/mL with Shigella sonnei IID 969 (weight concentration); 0.78 µg/mL in test [4] (setting [17]); 12.5 µg/mL in test [5] (setting [18]). Moreover, the MIC came to 25 µg/mL in the test on Escherichia coli MEGAWA (setting [19]); 12.5 µg/mL in [6] (setting [20]); 6.25 µg/mL in the test with Proteus morganii IID 602 (setting [21]); 12.5 µg/mL in [7] (setting [22]); 50 µg/mL in [8] (setting [23]); 0.78 µg/mL in test [9] (setting [16]). Also, the MIC was less than 0.1 µg/mL in the test on Escherichia coli N I H J (setting [16]); 6.25 µg/mL in test [10] (setting [24]); 6.25 µg/mL in the test with Proteus vulgaris; 1.56 µg/mL in [11]; 0.39 µg/mL in test [12] (setting [25]); 1.56 µg/mL in the test with Shigella boydii IID 627 (weight concentration). In addition, the MIC in test [13] (IFO3080, Inoculum size: 10^6 cells/ml, weight concentration, read-out: Minimum Inhibitory Concentration (MIC)) is 3.13 µg/mL; in test [14], 6.25 µg/mL; in test [15] (setting [26]) it was 0.39 µg/mL.

As to `CC(=O)OCC1=C(C(=O)O)N2C(=O)[C@@H](NC(=O)Cc3cccs3)[C@H]2SC1` [CET, cephalothin, reference compound], the MIC in [1] is 3.13 µg/mL (≈ 7.9 µM); in test [2], 0.78 µg/mL (≈ 1.97 µM); in test [3], 0.78 µg/mL (≈ 1.97 µM); against Shigella sonnei IID 969 (potency concentration), 6.25 µg/mL (≈ 15.8 µM); in test [4] (setting [27]) it was less than 0.1 µg/mL; in test [5] (setting [28]), more than 100 µg/mL. Moreover, the MIC in the test with Escherichia coli MEGAWA (Inoculum size: 10^6 cells/ml, potency concentration, read-out: Minimum Inhibitory Concentration (MIC)) was more than 100 µg/mL; in test [6] (setting [30]) it was more than 100 µg/mL; in the test on Proteus morganii IID 602 (setting [21]) it was more than 100 µg/mL; in test [7] (setting [31]), more than 100 µg/mL; in test [8] (IID5121, Inoculum size: 10^6 cells/ml, potency concentration, read-out: Minimum Inhibitory Concentration (MIC)), more than 100 µg/mL; in test [9], 0.2 µg/mL (≈ 0.504 µM). Besides, the MIC in the test with Escherichia coli N I H J (setting [29]) was 0.39 µg/mL (≈ 0.984 µM); in test [10] (IFO12648, Inoculum size: 10^6 cells/ml, potency concentration, read-out: Minimum Inhibitory Concentration (MIC)) it was more than 100 µg/mL; in the test on Proteus vulgaris, 6.25 µg/mL (≈ 15.8 µM); in test [11], 0.2 µg/mL (≈ 0.504 µM); in [12] (ATCC12228, read-out: Minimum Inhibitory Concentration (MIC)) it was less than 0.1 µg/mL; in the test with Shigella boydii IID 627 (potency concentration), 0.78 µg/mL (≈ 1.97 µM). Besides, the MIC was more than 100 µg/mL in test [13] (setting [32]); 1.56 µg/mL (≈ 3.93 µM) in [14]; 0.78 µg/mL (≈ 1.97 µM) in test [15] (IID865, read-out: Minimum Inhibitory Concentration (MIC)). The “Minimum Inhibitory Concentration (MIC)” value in the test with Escherichia coli MEGAWA (setting [29]) is less than 100 µg/mL.

For the compound `CC1=C(C(=O)O)N2C(=O)[C@@H](NC(=O)[C@H](N)c3ccccc3)[C@H]2SC1` [CEX, cephalexin, reference compound], the MIC in [1] was 12.5 µg/mL (≈ 36 µM); in [2] it was 3.13 µg/mL (≈ 9.01 µM); in test [3] it was 3.13 µg/mL (≈ 9.01 µM); with Shigella sonnei IID 969 (potency concentration), 6.25 µg/mL (≈ 18 µM); in test [4] (setting [27]), 0.78 µg/mL (≈ 2.25 µM); in [5] (setting [28]), more than 100 µg/mL. For the same compound, the MIC in the test on Escherichia coli MEGAWA (read-out: Minimum Inhibitory Concentration (MIC), Inoculum size: 10^6 cells/ml, potency concentration) is more than 100 µg/mL; in test [6] (setting [30]), more than 100 µg/mL; in the test with Proteus morganii IID 602 (setting [21]) it was more than 100 µg/mL; in test [7] (setting [31]), more than 100 µg/mL; in test [8] (IID5121, read-out: Minimum Inhibitory Concentration (MIC)), more than 100 µg/mL; with Escherichia coli N I H J, 3.13 µg/mL (≈ 9.01 µM). Further, the MIC was more than 100 µg/mL in [10] (setting [24]); 12.5 µg/mL (≈ 36 µM) in the test on Proteus vulgaris; 3.13 µg/mL (≈ 9.01 µM) against Shigella boydii IID 627 (potency concentration); more than 100 µg/mL in [13] (setting [32]); 6.25 µg/mL (≈ 18 µM) in test [14]. The “Minimum Inhibitory Concentration (MIC)” value in the test with Escherichia coli MEGAWA (setting [29]) was less than 100 µg/mL.

With `Cn1nnnc1SCC1=C(C(=O)O)N2C(=O)C(NC(=O)[C@H](NC(=O)N3CCN(N=C4SCCS4)C3=O)c3ccc(O)cc3)C2SC1` (single isomer, unassigned) [KI-6269, sodium 7-{D-(-)-α-[(2-oxo-3-(1,3-dithiolan-2-imino)-imidazolidin-1-yl)-carboxamido]-4-hydroxyphenylacetamido}-3-[(1-methyl-1,2,3,4-tetrazol-5-yl)-thiomethyl]-3-cephem-4-carboxylate], the MIC in [1] was 1.56 µg/mL; in test [2], less than 0.1 µg/mL; in [3] it was 1.56 µg/mL; in the test on Shigella sonnei IID 969 (weight concentration) it was 0.2 µg/mL; in test [4] (setting [17]), 0.78 µg/mL; in test [5] (setting [18]), 3.13 µg/mL. The MIC with Escherichia coli MEGAWA (setting [19]) was 6.25 µg/mL; in test [6] (setting [30]), 1.56 µg/mL; in the test on Proteus morganii IID 602 (IID602, Inoculum size: 10^6 cells/ml, weight concentration, read-out: Minimum Inhibitory Concentration (MIC)) it was 3.13 µg/mL; in test [7] (setting [22]), 6.25 µg/mL; in [8] (setting [23]), 25 µg/mL; in [9] it was 1.56 µg/mL. Moreover, the MIC with Escherichia coli N I H J (setting [16]) is less than 0.1 µg/mL; in test [10] (setting [24]), 1.56 µg/mL; in the test with Proteus vulgaris (setting [16]), 0.78 µg/mL; in test [11], 1.56 µg/mL; in test [12] (setting [25]), 0.39 µg/mL; against Shigella boydii IID 627 (weight concentration), less than 0.1 µg/mL. For the same compound, the MIC in test [13] (setting [32]) stood at 1.56 µg/mL; in [14], 1.56 µg/mL; in [15] (setting [26]) it was 0.2 µg/mL.

For `Cc1nnc(SCC2=C(C(=O)O)N3C(=O)C(NC(=O)[C@H](NC(=O)N4CCN(N=C5SCCS5)C4=O)c4ccccc4)C3SC2)s1` (single isomer, unassigned) [TO-180, 7-{D-(-)-α-[(2-oxo-3-(1,3-dithiolan-2-imino)-imidazolidin-1-yl)-carboxamido]-phenylacetoamide}-3-[5-methyl-(1,3,4-thiadiazol-2-yl)-thiomethyl]-3-cephem-4-carboxylic acid], the MIC was found to be 1.56 µg/mL (≈ 2.21 µM) in test [1]; 0.39 µg/mL (≈ 0.552 µM) in test [2]; 1.56 µg/mL (≈ 2.21 µM) in test [3]; 0.39 µg/mL (≈ 0.552 µM) against Shigella sonnei IID 969 (weight concentration); 0.78 µg/mL (≈ 1.1 µM) in [4] (setting [17]); 3.13 µg/mL (≈ 4.43 µM) in [5] (setting [18]). In addition, the MIC is 6.25 µg/mL (≈ 8.84 µM) in the test with Escherichia coli MEGAWA (setting [19]); 3.13 µg/mL (≈ 4.43 µM) in test [6] (setting [20]); 1.56 µg/mL (≈ 2.21 µM) with Proteus morganii IID 602 (setting [21]); 6.25 µg/mL (≈ 8.84 µM) in test [7] (setting [22]); 25 µg/mL (≈ 35.4 µM) in test [8] (setting [23]); 0.39 µg/mL (≈ 0.552 µM) in [9] (setting [16]). For the same compound, the MIC was less than 0.1 µg/mL with Escherichia coli N I H J (setting [16]); 1.56 µg/mL (≈ 2.21 µM) in [10] (setting [24]); 1.56 µg/mL (≈ 2.21 µM) with Proteus vulgaris; 0.39 µg/mL (≈ 0.552 µM) in [11] (setting [16]); 0.39 µg/mL (≈ 0.552 µM) in [12] (setting [25]); 0.39 µg/mL (≈ 0.552 µM) with Shigella boydii IID 627 (weight concentration). In addition, the MIC was determined as 1.56 µg/mL (≈ 2.21 µM) in test [13] (setting [32]), 1.56 µg/mL (≈ 2.21 µM) in test [14] and 0.39 µg/mL (≈ 0.552 µM) in [15] (setting [26]).
